Test results from US5994356A, “Carboxylic acid derivatives, medicaments comprising these compounds, their use and processes for their production” (priority 1996, dated 1999).
Where a name gives a salt, the structure may show the parent alone.

How the values were obtained:
[1] = Plasma levels in Rhesus monkeys after oral administration; assay type: in vivo; details: 1 mg/kg
human platelets = test: Inhibition of the binding of ^3 H-BIBU 52 to human platelets (fibrinogen binding test); details: human platelets in plasma; ^3 H-BIBU 52 5 nM; room temperature, 20 minutes
Procedure: 1. Inhibition of the binding of ^3 H-BIBU 52 to Human Platelets
The free and bound ligand is separated by centrifugation and determined quantitatively by scintillation counting. From the measurements, the inhibition of ^3 H-BIBU 52 binding by the test substance is determined.
To do this, donor blood is taken from an antecubital vein and anticoagulated with trisodium citrate (final concentration 13 mM). The blood is centrifuged at 170×g for 10 minutes and the supernatant platelet-rich plasma (PRP) is removed. The residual blood is rapidly centrifuged once more to obtain plasma. The PRP is diluted 1:10 with autologous plasma. 750 μl are incubated with […] of physiological saline solution, 100 μl of test substance solution, 50 μl of ^14 C-sucrose (3700 Bq) and 50 μl of ^3 H-BIBU 52 (final concentration: 5 nM) at room temperature for 20 minutes. To measure the non-specific binding, instead of the test substance, 100 μl of BIBU 52 (final concentration: 30 μM) is employed. The samples are centrifuged at 10,000×g for 20 seconds and the supernatant is removed. 100 μl thereof are measured to determine the free ligand. The pellet is dissolved in 500 μl of 0.2N NaOH, and 450 μl are mixed with 2 ml of scintillator and 25 μl of 5N HCl and measured. The residual plasma still remaining in the pellet is determined from the ^14 C content, the bound ligand from the ^3 H measurement.

platelet aggregation = test: Antithrombotic action: collagen-induced platelet aggregation in platelet-rich plasma (Born and Cross); assay type: cell-based; details: Homo sapiens, 10 min, platelet-rich plasma of healthy subjects, incubated 10 minutes at 37° C., 50% change in optical density, read-out: Inhibition of platelet aggregation EC50
Procedure: 2. Antithrombotic Action Methodology Platelet aggregation is measured according to the method of Born and Cross (J. Physiol. 170, 397 (1964)) in platelet-rich plasma of healthy subjects. To inhibit clotting, the blood is treated with sodium citrate 3.14% in the volume ratio 1:10. Collagen-induced Aggregation The course of the decrease in the optical density of the platelet suspension is measured photometrically and recorded after addition of the aggregation-inducing substance. From the angle of inclination of the density curve, the aggregation rate is deduced. The point on the curve at which the greatest light transmission is present serves for the calculation of the optical density. The amount of collagen is chosen to be as low as possible, but of course such that an irreversibly running reaction curve results. Commercially available collagen from Hormonchemie, Munich is used. Before the addition of collagen, the plasma is incubated at 37° C. with the substance for 10 minutes in each case. From the measured values obtained, an EC50 which relates to a 50% change in the optical density in the sense of an inhibition of aggregation is determined graphically.

period of high plasma levels [1] | SMILES | IC50 (human platelets) [nM] | EC50 (platelet aggregation) [nM]
more than 8 hours | COC(=O)COc1ccc(N2CCN(CCC3CCNCC3)CC2C)cc1.Cl.Cl (stereo not drawn) [2(4), 1-(4-Methoxycarbonylmethyloxyphenyl)-2-methyl-4-[2-(piperidin-4-yl)ethyl]piperazine dihydrochloride] | – | –
– | O=C(O)C(Oc1ccc(N2CCN(CCC3CCNCC3)CC2)cc1)c1ccccc1 (stereo not drawn) [7(6), 1-[4-(1-Carboxybenzyloxy)phenyl]-4-[2-(piperidin-4-yl)ethyl]piperazine dihydrochloride] | 150 | –
– | O=C(O)CO[C@H]1CC[C@H](N2CCN(CCC3CCNCC3)CC2=O)CC1 [7(1), 1-(trans-4-Carboxymethyloxycyclohexyl)-4-[2-(piperidin-4-yl)ethyl]piperazin-2-one] | 200 | 250
– | CN(CC1CCNCC1)[C@H]1CC[C@H](c2ccc(OCC(=O)O)cc2)CC1 [1(22), trans-1-(4-Carboxymethyloxyphenyl)-4-[(piperidin-4-yl)-N-methylmethylamino]cyclohexane dihydrochloride] | 260 | 370
– | CC1CN(CCC2CCNCC2)CCN1c1ccc(OCC(=O)O)cc1 (stereo not drawn) [1(7), 1-(4-Carboxymethyloxyphenyl)-2-methyl-4-[2-(piperidin-4-yl)ethyl]piperazine dihydrochloride] | 260 | 240
more than 8 hours | COC(=O)COc1ccc(N2CCN(CCC3CCNCC3)CC2)cc1.Cl.Cl [Example 2, 1-(4-Methoxycarbonylmethyloxyphenyl)-4-[2-(piperidin-4-yl)ethyl]piperazine dihydrochloride] | – | –
– | O=C(O)COc1ccc(N2CCN(CCC3CCNCC3)CC2)cc1 [Example 1, 1-(4-Carboxymethyloxyphenyl)-4-[2-(piperidin-4-yl)ethyl]piperazine dihydrochloride] | 150 | 120
– | O=C(O)COc1ccc(N2CCN(CCC3CCNCC3)CC2)cc1OCC(=O)O [1(3), 1-[3,4-Di(carboxymethyloxy)phenyl]-4-[2-(piperidin-4-yl)ethyl]piperazine d ihydrochloride] | 47 | 110
more than 8 hours | CCOC(=O)COc1ccc(N2CCN(CCC3CCNCC3)CC2)cc1OCC(=O)OCC.Cl.Cl [Example 9, 1-[3,4-Di(ethoxycarbonylmethyloxy)phenyl]-4-[2-(piperidin-4-yl)ethyl]piperazine dihydrochloride] | – | –
more than 8 hours | CC(C)COC(=O)COc1ccc(N2CCN(CCC3CCNCC3)CC2)cc1OCC(=O)OCC(C)C [9(1), 1-[3,4-Di(isobutyloxycarbonylmethyloxy)phenyl]-4-[2-piperidin-4-yl)ethyl]piperazine dihydrochloride] | – | –
more than 8 hours | Cl.Cl.O=C(COc1ccc(N2CCN(CCC3CCNCC3)CC2)cc1OCC(=O)OC1CCCCC1)OC1CCCCC1 [9(2), 1-[3,4-Di(cyclohexyloxycarbonylmethyloxy)phenyl]4-[2-(piperidin-4-yl)ethyl]piperazine dihydrochloride] | – | –
– | O=C(O)COc1ccc(N2CCN(CCC3CCNCC3)CC2=O)cc1 [1(1), 1-(4-Carboxymethyloxyphenyl)-4-[2-(piperidin-4-yl)ethyl]piperazin-2-onedihydrochloride] | 360 | 370
